Measured values taken from patent US6541193B2, “Screening the activity of drugs for central nervous system (CNS)” (Council of Scientific & Industrial Research, priority 2001, dated 2003).

Test system: Sh^5eag^1 mutant flies
Assay: Recovery time from diethyl ether anesthesia in flies fed drug in food
Assay type: in vivo, Drosophila melanogaster
Details: Sh^5eag^1 males
Method: Standard Drosophila manipulation methods were followed. Cultures were grown on a medium containing maize powder, sugar, yeast and Nipagin. Flies were maintained and further manipulated at room temperature. Experimental conditions were kept identical. The double mutant Sh^5eag^1 was generated using standard methods of Drosophila genetics.
Equal number of Sh^5eag^1 males, varying in age between 6-9 days, were treated in 25×100 mm glass vials with either normal food (NF) or food containing 1 mg/ml of phenobarbital sodium (PS; NF+PS) for 5 days. Twenty males were treated in each vial. Flies were first anesthesized with ether and healthy looking individuals shifted to 10 empty vials in such a way that each vial received two flies, one from each treatment. Before shifting, flies from one of the two treatments were marked on their wings for the purpose of identification. Flies were allowed to recover fully. After an hour, each fly pair was subjected to the following test one by one. The two flies, inside a vial with 800 mg of cotton plug, were simultaneously anesthetized by pouring 0.2 ml of diethyl ether on to the plug. After about 1.5 min, during which the vial was gently shaken continuously so that the flies remained at the bottom throughout, the two individuals were immediately shifted to two fresh empty vials. Time at this point was considered 0 min. […]

`CCC1(c2ccccc2)C(=O)NC(=O)NC1=O` [PS, phenobarbital sodium] was tested, and the “effect on recovery from ether anesthesia” value (1 mg/ml in food for 5 days, vs normal food) was “delays recovery from ether anesthesia” and the “recovery time (time to first stand up on legs after etherisation)” value (food containing 1 mg/ml for 5 days, diethyl ether anesthesia, NF control 2.4±0.44 min, p<0.02) was 7.2 ± 1.78 min.
